The melting point is the temperature of the solid-liquid transition.

For the data set the following is noted: a range is the spread between reports.
`CCC(c1ccccc1)c1ccccc1` registered a melting point of 13.3 to 14 °C.

`CCCCCCCCCCCCCC(=O)CCCCCCCCCCCCC` gave a melting point of 77.5 to 78 °C.

With `CCC(C)(O)CC`, the melting point was -24 to -23.6 °C.

As to `Nc1ccccn1`, the melting point lay within 57.5 to 58 °C.

With `CCCCCSCCCCC`, the melting point was -51.3 to -51 °C.

For the molecule `Cc1cncnc1`, the melting point lay within 30 to 32 °C.

`O=C=Nc1ccc(N=C=O)cc1` displayed a melting point of 94 to 97.5 °C.

`CCCC(=O)OCC` yielded a melting point of -98 to -93 °C.

The molecule `CCC` registered a melting point of -188 °C.

`CN(C)C(=O)Nc1ccccc1` displayed a melting point of 132 to 134 °C.

`CCCCCC#N` displayed a melting point of -80.3 to -80 °C.

Turning to `OCC(Cl)(Cl)Cl`, the melting point was 18 to 19 °C.

Regarding `Oc1cccc(Br)c1`, the melting point was in the range of 30 to 33 °C.

Consider `COC(=O)c1ccc(Cl)c([N+](=O)[O-])c1`, for which the melting point is 80 to 83 °C.

As for `NC(=O)c1ccc(O)cc1`, the melting point lay within 161 to 162 °C.

`FC(F)(F)F` gave a melting point of -184 °C.

`c1ccc(-c2ccnc3c2ccc2c(-c4ccccc4)ccnc23)cc1` had a melting point of 218 to 220 °C.

As to `O=C(Oc1ccccc1)c1ccccc1C(=O)Oc1ccccc1`, the melting point lay in the range of 73 to 75 °C.

In the case of `Cc1cc(O)c(C(C)C)cc1C1(c2cc(C(C)C)c(O)cc2C)OC(=O)c2ccccc21`, the melting point was 250 to 253 °C.

With `Cc1cc(-c2ccc(N)c(C)c2)ccc1N`, the melting point fell in the range of 130 to 132 °C.

`OCCCl`: the melting point was -67.5 to -63 °C.

Turning to `O=Cc1c(O)ccc2ccccc12`, the melting point is 79 to 83 °C.

In the case of `CCCCCC(=O)CCCCC`, the melting point fell in the range of 14.5 to 15 °C.

Consider `COc1ccc(CC(=O)O)cc1OC`, for which the melting point was in the range of 97 to 98 °C.

Regarding `O=P(c1ccccc1)(c1ccccc1)c1ccccc1`, the melting point is 156 °C.

`O=C(CCl)c1ccccc1` gave a melting point of 54 to 56.5 °C.

On to `CCCOC(C)=O`, for which the melting point is -95 to -92 °C.

`ClC(c1ccccc1)(c1ccccc1)c1ccccc1` gave a melting point of 112 to 114 °C.

In turn, `CC(C)C(O)C(C)(C)CO` (stereo not drawn) showed a melting point of 51.5 to 52 °C.

`CC1(C)CC(C)(c2ccccc2)c2ccccc21` (stereo not drawn): the melting point was in the range of 50 to 52.5 °C.

As to `CCOC(=O)c1ccccc1N`, the melting point was 13 to 15 °C.

On to `CCCCCCCCCS`, for which the melting point was -20.1 to -20 °C.

`OC(c1ccc(Cl)cc1)(c1ccc(Cl)cc1)C(Cl)(Cl)Cl` showed a melting point of 77.5 to 78.5 °C.

`O=C(O)CCc1ccc(O)cc1` yielded a melting point of 129 to 131 °C.

As for `O=C1CCc2ccccc21`, the melting point is 40 to 42 °C.

`O=C(c1cccs1)c1cccs1`: the melting point fell in the range of 89 to 90 °C.

Molecule `OCCOc1ccccc1` showed a melting point of 12 to 14 °C.

With `CC(Br)C(Br)C(=O)O` (stereo not drawn), the melting point was in the range of 85 to 87 °C.

In the case of `C=Cc1cccc(C)c1`, the melting point was -86.3 to -82 °C.

As to `CCC(=O)c1ccc(O)cc1O`, the melting point lay in the range of 99 to 100 °C.

As to `CC(=O)c1ccc(Cl)cc1`, the melting point is 18 to 20 °C.

`OCCCCCCCCCO` had a melting point of 45.8 to 47 °C.

With `O=C(Cl)CCC(=O)Cl`, the melting point lay within 17 to 20 °C.

Molecule `Oc1ccc2cc(O)ccc2c1` had a melting point of 220 to 224 °C.

In turn, `CC(=O)Oc1cccc2ccccc12` registered a melting point of 44.5 to 45 °C.

The molecule `C#CCCCCCCCCCCCCCCCC` displayed a melting point of 22.5 to 27 °C.

In turn, `O=Cc1cc(Cl)ccc1Cl` yielded a melting point of 56 to 58 °C.

As for `NCCCCN`, the melting point is 27 to 27.5 °C.

`Nc1ccc2c(c1)Cc1ccccc1-2` displayed a melting point of 128 to 129 °C.

For the molecule `COc1ccc(C(N)=O)cc1`, the melting point lay within 165 to 166 °C.

Molecule `O=Cc1ccc(O)c([N+](=O)[O-])c1` registered a melting point of 141 to 142 °C.

In turn, `CCCCCCCCCCCCCCCCCCCCCCCCCC` came in with a melting point of 56.4 to 57 °C.

`Nc1cc(Cl)ccc1Cl`: the melting point was 48 to 50 °C.

As for `Cc1cccc(Br)c1`, the melting point was -40 to -39.8 °C.

`OC1(c2ccccc2)CCCCC1`: the melting point was in the range of 60 to 63.5 °C.

Consider `O=C(O)c1ccccc1C(=O)c1ccccc1`, for which the melting point was in the range of 127 to 129 °C.

As to `NCCC(=O)O`, the melting point lay in the range of 196 to 200 °C.

With `CC(=O)Nc1ccccc1`, the melting point lay in the range of 114 to 115 °C.

`C1CCCCCCC1` yielded a melting point of 12 to 15 °C.

In turn, `CC(=O)c1ccc(O)c(O)c1O` gave a melting point of 171 to 173 °C.

In turn, `CC` displayed a melting point of -183 °C.

The molecule `C=Cc1cccc(C(=O)O)c1` came in with a melting point of 95 to 96 °C.

Regarding `O=C1OC(=O)C2C1C1(Cl)C(Cl)=C(Cl)C2(Cl)C1(Cl)Cl` (stereo not drawn), the melting point is 233 to 237 °C.

The molecule `CCCCC(C)CCC` (stereo not drawn) had a melting point of -113 °C.

The molecule `Nc1ccc(Cc2ccc(N)cc2)cc1` came in with a melting point of 90 to 92.5 °C.

The molecule `Cc1c[nH]c(=O)[nH]c1=O` came in with a melting point of 316 to 317 °C.

In turn, `CC(Oc1cccc(Cl)c1)C(=O)O` (stereo not drawn) displayed a melting point of 113 to 115 °C.

As to `Clc1ccc(Cl)c(Cl)c1Cl`, the melting point fell in the range of 47 to 47.5 °C.

The molecule `Cc1ccc(CO)cc1` registered a melting point of 59 to 61.5 °C.

As for `CCCCCCCCC(=O)CC`, the melting point was 9 to 13 °C.

With `COc1ccc2cc(OC)ccc2c1`, the melting point was in the range of 150 to 153 °C.

`CCCCCCCCC(=O)Cl` came in with a melting point of -61 to -60.5 °C.

Molecule `CC(=O)c1cccc(C(C)=O)c1` gave a melting point of 32 to 36 °C.

The molecule `Fc1ccc(C(F)(F)F)cc1` showed a melting point of -42 to -41.7 °C.

Molecule `O=C(O)CCC(=O)O` registered a melting point of 185 to 188 °C.

The molecule `Cc1cc(Cl)nc(Cl)n1` came in with a melting point of 46 to 46.5 °C.

In turn, `CCCCCCCCCc1ccc(O)cc1` returned a melting point of 42 to 45 °C.

`NCC(CC(=O)O)c1ccc(Cl)cc1` (stereo not drawn) had a melting point of 207 to 208 °C.

As to `CC(C)(C)CC(=O)O`, the melting point fell in the range of 6 to 6.5 °C.

As for `CC/C=C/CC`, the melting point was -115 to -113 °C.

Turning to `C=C(C)CC`, the melting point was -138 to -137 °C.

`O=C(CO)c1ccccc1` gave a melting point of 4.5 to 6 °C.

In the case of `CCCCCCCCCCCCCCCCCC(=O)CCCCCCCCCCCCCCCCC`, the melting point was 87 to 89 °C.

As to `CC(C)C(O)C(C)(C)C` (stereo not drawn), the melting point is -13 to -11 °C.

`S=C=Nc1ccc(Cl)cc1` came in with a melting point of 45 to 46 °C.

Molecule `NCc1ccncc1` showed a melting point of -8 to -7.6 °C.

For the molecule `CC[C@H]1CC[C@H]2[C@@H]3CC[C@@H]4CCCC[C@]4(C)[C@H]3CC[C@]12C`, the melting point lay in the range of 83.5 to 84.5 °C.

With `CCc1cc(C)c(C)cc1C`, the melting point was -14 to -13.5 °C.

Consider `O=P(O)(c1ccccc1)c1ccccc1`, for which the melting point lay in the range of 194 to 195 °C.

Take `C=C(C)CCC(=C)C`: the melting point was -75.6 to -75 °C.

As for `CC(C)=CC(C)C`, the melting point is -128 °C.

`CC(=O)c1cc2ccccc2o1` registered a melting point of 71 to 76 °C.

With `COc1ccc2c(c1OC)C(=O)OC2`, the melting point is 101 to 102 °C.

The molecule `COC(=O)c1ccccc1OC(C)=O` returned a melting point of 51.5 to 52 °C.

The molecule `Nc1cccc(C(F)(F)F)c1` gave a melting point of 5.5 to 6 °C.

Consider `O=c1c(O)c(-c2ccccc2)oc2cc(O)cc(O)c12`, for which the melting point fell in the range of 214 to 215 °C.

For `Clc1cc(Cl)c(Cl)cc1Cl`, the melting point fell in the range of 139 to 140 °C.

`Clc1c(Cl)c(Cl)c(Cl)c(Cl)c1Cl` gave a melting point of 228 to 232 °C.

For the origin of these results see a melting point compilation (Tetko et al.).
